Assay [1] has as its target T1, ClpB NBD2 (Thermus thermophilus, UniProt Q9RA63, R806A). Description: stopped-flow FRET, direct mixing and displacement, global fit; Kd = koff/kon. In kind it is binding. Particulars: 50 mM Tris-HCl pH 7.5, 200 mM KCl, 5 mM MgCl2, 2 mM EDTA, 25 °C; labelled compound. An excerpt: (§1) stopped-flow FRET, direct mixing and displacement, global fit; Kd = koff/kon on ClpB NBD2

In assay [2] the target is T2, ClpB NBD2 (Thermus thermophilus, UniProt Q9RA63, N709A). Description: stopped-flow FRET, displacement and competition with MANT-dADP, global fit; Kd = koff/kon. Format: binding. Particulars: 50 mM Tris-HCl pH 7.5, 200 mM KCl, 5 mM MgCl2, 2 mM EDTA, 25 °C. From the text: (§2) stopped-flow FRET, displacement and competition with MANT-dADP, global fit; Kd = koff/kon on ClpB NBD2
T2 sequence (Q9RA63 520-854 N709A): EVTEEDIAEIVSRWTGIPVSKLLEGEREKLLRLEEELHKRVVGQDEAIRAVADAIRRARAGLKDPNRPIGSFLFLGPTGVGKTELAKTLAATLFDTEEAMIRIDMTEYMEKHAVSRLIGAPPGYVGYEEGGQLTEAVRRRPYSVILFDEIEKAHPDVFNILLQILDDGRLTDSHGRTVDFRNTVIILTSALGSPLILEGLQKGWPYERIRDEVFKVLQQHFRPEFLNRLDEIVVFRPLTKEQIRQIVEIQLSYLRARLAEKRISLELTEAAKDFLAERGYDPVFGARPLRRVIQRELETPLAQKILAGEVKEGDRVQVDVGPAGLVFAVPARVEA

Assay [3] has as its target T3, ClpB NBD2 (Thermus thermophilus, UniProt Q9RA63).
T3 sequence (Q9RA63 520-854): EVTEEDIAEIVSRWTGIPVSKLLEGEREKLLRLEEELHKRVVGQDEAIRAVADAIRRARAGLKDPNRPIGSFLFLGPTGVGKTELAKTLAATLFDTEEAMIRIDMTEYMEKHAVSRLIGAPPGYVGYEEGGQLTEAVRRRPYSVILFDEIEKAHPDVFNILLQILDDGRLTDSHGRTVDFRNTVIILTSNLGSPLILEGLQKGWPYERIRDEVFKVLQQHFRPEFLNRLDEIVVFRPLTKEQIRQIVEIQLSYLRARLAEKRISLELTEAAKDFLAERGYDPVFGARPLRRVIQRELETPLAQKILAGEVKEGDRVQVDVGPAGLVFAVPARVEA
Description: X-ray crystal structure, […] Å. Particulars: co-crystal with 2 mM ADP, pH 7.0; nucleotide site of NBD2, no Mg2+ bound. Format: binding.

In assay [4] the target is T4, ClpB NBD2 (Thermus thermophilus, UniProt Q9RA63, R621Q). In words: stopped-flow FRET, displacement and competition with MANT-dADP, global fit; Kd = koff/kon. Conditions: 50 mM Tris-HCl pH 7.5, 200 mM KCl, 5 mM MgCl2, 2 mM EDTA, 25 °C; read-out: Nucleotide binding / K d.
T4 sequence (Q9RA63 520-854 R621Q): as the sequence (Q9RA63 520-854 N709A) above, with R102Q, A190N counted along it
Text: as §2

The target of assay [5] is T1, ClpB NBD2. The assay is described as above. Conditions: 50 mM Tris-HCl pH 7.5, 200 mM KCl, 5 mM MgCl2, 2 mM EDTA, 25 °C; read-out: Nucleotide binding / K d.
Text: as §2

Assay [6] addresses T4, ClpB NBD2. Description: stopped-flow FRET, competition and displacement with MANT-dADP, global fit; Kd = koff/kon. Particulars: 50 mM Tris-HCl pH 7.5, 200 mM KCl, 5 mM MgCl2, 2 mM EDTA, 25 °C; ATP-regenerating system (pyruvate kinase, phosphoenolpyruvate); read-out: Nucleotide binding / K d. From the text: (§3) stopped-flow FRET, competition and displacement with MANT-dADP, global fit; Kd = koff/kon on ClpB NBD2

For assay [7], the target named is T1, ClpB NBD2. The assay is described as above. Conditions: 50 mM Tris-HCl pH 7.5, 200 mM KCl, 5 mM MgCl2, 2 mM EDTA, 25 °C; ATP-regenerating system (pyruvate kinase, phosphoenolpyruvate); read-out: Nucleotide binding / K d.
Text: as §3

The target of assay [8] is T2, ClpB NBD2. Described as above. Particulars: 50 mM Tris-HCl pH 7.5, 200 mM KCl, 5 mM MgCl2, 2 mM EDTA, 25 °C; ATP-regenerating system (pyruvate kinase, phosphoenolpyruvate); read-out: Nucleotide binding / K d.
Text: as §3

Assay [9] has as its target T4, ClpB NBD2. In words: stopped-flow FRET, direct mixing and displacement, global fit; Kd = koff/kon. Format: binding. Conditions: 50 mM Tris-HCl pH 7.5, 200 mM KCl, 5 mM MgCl2, 2 mM EDTA, 25 °C; labelled compound.
Text: as §1

Assay [10] has as its target T2, ClpB NBD2. The description is as above. Format: binding. Particulars: 50 mM Tris-HCl pH 7.5, 200 mM KCl, 5 mM MgCl2, 2 mM EDTA, 25 °C; labelled compound.
Text: as §1

The target in assay [11] is T3, ClpB NBD2. In words: X-ray crystal structure, […] Å. Format: binding. Particulars: co-crystal with 2 mM AMPPCP, pH 7.0; nucleotide site of NBD2, no Mg2+ bound.

T1 sequence (Q9RA63 520-854 R806A): as the sequence (Q9RA63 520-854 N709A) above, with A190N, R287A counted along it

Turning to `CNc1ccccc1C(=O)O[C@H]1C[C@H](n2cnc3c(N)ncnc32)O[C@@H]1COP(=O)(O)OP(=O)(O)OP(=O)(O)O` [MANT-dATP], the “Nucleotide binding / K d (μM)” value on ClpB NBD2 [1] is given as 0.29 ± 2 × 10^−3 µM.

As to `Nc1ncnc2c1ncn2[C@@H]1O[C@H](COP(=O)(O)OP(=O)(O)O)[C@@H](O)[C@H]1O` [ADP], the “Nucleotide binding / K d (μM)” value at ClpB NBD2 [2] is listed as 0.43 ± 8 × 10^−3 µM. The “X-ray crystal structure, 2.4 Å” value on ClpB NBD2 [3] was “Wild-type ClpB NBD2 in complex with ADP, PDB entry 4lj5”. Also, the Kd at ClpB NBD2 [4] was determined as 1.5 ± 0.02 µM; at ClpB NBD2 [5], 3.8 ± 0.06 µM.

Regarding `Nc1ncnc2c1ncn2[C@@H]1O[C@H](COP(=O)(O)OP(=O)(O)OP(=O)(O)O)[C@@H](O)[C@H]1O` [ATP], the Kd on ClpB NBD2 [6] worked out at 55 ± 2 µM; on ClpB NBD2 [7] it was 84 ± 4 µM; at ClpB NBD2 [8], 74 ± 3 µM.

As to `CNc1ccccc1C(=O)O[C@H]1C[C@H](n2cnc3c(N)ncnc32)O[C@@H]1COP(=O)(O)OP(=O)(O)O` [MANT-dADP], the “Nucleotide binding / K d (μM)” value at ClpB NBD2 [9] is 0.0068 ± 8 × 10^−5 µM; on ClpB NBD2 [1] it was 0.027 ± 1 × 10^−4 µM; at ClpB NBD2 [10], 0.0024 ± 3 × 10^−5 µM.

Take `Nc1ncnc2c1ncn2[C@@H]1O[C@H](COP(=O)(O)OP(=O)(O)CP(=O)(O)O)[C@@H](O)[C@H]1O` [AMPPCP]: on ClpB NBD2 [11], the “X-ray crystal structure, 1.9 Å” value is “Wild-type ClpB NBD2 in complex with AMPPCP, PDB entry 4lj6”.
